The source of these data is patent US20110098325A1, “PYRIDINE BENZAMIDES AND PYRAZINE BENZAMIDES USED AS PKD INHIBITORS” (CANCER RESEARCH TECHNOLOGY LIMITED, priority 2006, published 2011).

Molecules are shown by their SMILES.

This assay deals with T1, Murine PKD1 kinase domain (Mus musculus, UniProt Q62101).
T1 construct: hexahistidine (pFastBac HTb leader) (N); made in house; host or cells: Sf9 insect cells, baculovirus (Bac-to-Bac HT, pFastBac HTb)
T1 sequence (Q62101 with tags, fused parts or gaps R683W): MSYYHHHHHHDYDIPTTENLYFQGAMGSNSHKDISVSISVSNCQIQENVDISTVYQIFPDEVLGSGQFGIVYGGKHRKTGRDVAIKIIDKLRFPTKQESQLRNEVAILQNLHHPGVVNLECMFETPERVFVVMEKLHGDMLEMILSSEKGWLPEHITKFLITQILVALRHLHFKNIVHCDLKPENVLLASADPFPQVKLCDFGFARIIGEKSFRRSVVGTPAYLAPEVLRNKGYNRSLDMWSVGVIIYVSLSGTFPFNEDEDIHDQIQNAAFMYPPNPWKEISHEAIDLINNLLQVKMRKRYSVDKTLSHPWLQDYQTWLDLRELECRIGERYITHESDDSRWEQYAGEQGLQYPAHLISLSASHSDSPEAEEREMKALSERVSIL
Briefly: PKD1 (Murine Kinase Domain) Enzyme Activity Assay (IMAP fluorescence polarisation). The format is biochemical. To be noted: 10 μM ATP, 60 minutes, room temperature. Background: In fluorescence polarisation assays a small probe gives low polarisation when free and higher when bound to something large.
Consider `CN(C)CCNC(=O)c1cccc(-c2cnc(N)c(-c3ccc(F)cc3)c2)c1` [Y-058, 3-[6-Amino-5-(4-fluoro-phenyl)-pyridin-3-yl]-N-(2-dimethylamino-ethyl)-benzamide], for which the IC50 (as a rule, the concentration that inhibits the measured activity by half) was under 1000 nM.

With `COc1cc(-c2cncc(-c3cccc(C(=O)NCCN)c3)n2)ccc1O` [X-021, N-(2-Amino-ethyl)-3-[6-(4-hydroxy-3-methoxy-phenyl)-pyrazin-2-yl]-benzamide], the 50% inhibitory concentration (IC50) is under 1000 nM. Under `CN(C)CCNC(=O)c1cccc(-c2cnc(N)c(-c3cccc(C#N)c3)c2)c1` [Y-041, 3-[6-Amino-5-(3-cyano-phenyl)-pyridin-3-yl]-N-(2-dimethylamino-ethyl)-benzamide] stands under 1000 nM. For `CN(C)CCNC(=O)c1cccc(-c2cnc(N)c(-c3ccc4ccccc4c3)c2)c1` [Y-020, 3-(6-Amino-5-naphthalen-2-yl-pyridin-3-yl)-N-(2-dimethylamino-ethyl)-benzamide], the IC50 is under 1000 nM. `COc1ccccc1-c1cc(-c2cccc(C(N)=O)c2)cnc1N` [Y-002, 3-[6-Amino-5-(2-methoxy-phenyl)-pyridin-3-yl] benzamide]: the 50% inhibitory concentration (IC50) lay within 1000 to 10000 nM. Molecule `CN(C)CCNC(=O)c1cccc(-c2cnc(N)c(-c3cccc4cccnc34)c2)c1` [Y-023, 3-(6-Amino-5-quinolin-8-yl-pyridin-3-yl)-N-(2-dimethylamino-ethyl)-benzamide] came in with an IC50 of under 1000 nM. The molecule `COc1cc(F)ccc1-c1cc(-c2cccc(C(=O)NCCN(C)C)c2)cnc1N` [Y-054, 3-[6-Amino-5-(4-fluoro-2-methoxy-phenyl)-pyridin-3-yl]-N-(2-dimethylamino-ethyl)-benzamide] displayed a 50% inhibitory concentration (IC50) of 1000 to 10000 nM. With `COc1ccc(-c2cc(-c3cccc(C(=O)NCCN(C)C)c3)cnc2N)cc1` [Y-063, 3-[6-Amino-5-(4-methoxy-phenyl)-pyridin-3-yl]-N-(2-dimethylamino-ethyl)-benzamide], the IC50 was under 1000 nM. In turn, `NC(=O)c1cccc(-c2cnc(N)c(-c3ccoc3)c2)c1` [Y-016, 3-(6-Amino-5-furan-3-yl-pyridin-3-yl)-benzamide] yielded an IC50 of under 1000 nM.

For `CN(C)CCNC(=O)c1cccc(-c2cncc(-c3cccc4c3oc3ccccc34)n2)c1` [X-013, 3-(6-Dibenzofuran-4-yl-pyrazin-2-yl)-N-(2-dimethylamino-ethyl)-benzamide], the IC50 was under 1000 nM. `COc1cc(-c2cc(-c3cccc(C(=O)NCCN(C)C)c3)cnc2N)ccn1` [Y-005, 3-(2-Amino-2′-methoxy-[3,4′]bipyridinyl-5-yl)-N-(2-dimethylamino-ethyl)-benzamide] yielded an IC50 of under 1000 nM. The molecule `CC(C)Cc1ccc(-c2cc(-c3cccc(C(=O)NCCN(C)C)c3)cnc2N)cc1` [Y-062, 3-[6-Amino-5-(4-isobutyl-phenyl)-pyridin-3-yl]-N-(2-dimethylamino-ethyl)-benzamide] displayed a half-maximal inhibitory concentration (IC50) of under 1000 nM. In turn, `CN(C)CCNC(=O)c1cccc(-c2cnc(N)c(-c3cc4ccccc4s3)c2)c1` [Y-011, 3-(6-Amino-5-benzo[b]thiophen-2-yl-pyridin-3-yl)-N-(2-dimethylamino-ethyl)-benzamide] had an IC50 of under 1000 nM. For the molecule `CNc1ncc(-c2cccc(C(=O)NCCN(C)C)c2)cc1-c1cccc(OC)c1` [Y-074, N-(2-Dimethylamino-ethyl)-3-[5-(3-methoxy-phenyl)-6-methylamino-pyridin-3-yl]-benzamide], the IC50 was under 1000 nM.

As for `CN(C)CCNC(=O)c1cccc(-c2cnc(N)c(-c3cccc4c3oc3ccccc34)n2)c1` [X-012, 3-(5-Amino-6-dibenzofuran-4-yl-pyrazin-2-yl)-N-(2-dimethylamino-ethyl)-benzamide], the IC50 was under 1000 nM. The molecule `COc1cc(-c2cncc(-c3cccc(C(N)=O)c3)n2)ccc1O` [X-018, 3-[6-(4-Hydroxy-3-methoxy-phenyl)-pyrazin-2-yl]-benzamide] returned an IC50 of 1000 to 10000 nM. `Cc1ccc(-c2cc(-c3cccc(C(=O)NCCN(C)C)c3)cnc2N)cc1C` [Y-036, 3-[6-Amino-5-(3,4-dimethyl-phenyl)-pyridin-3-yl]-N-(2-dimethylamino-ethyl)-benzamide] yielded a half-maximal inhibitory concentration (IC50) of under 1000 nM. To `CCOc1cccc(-c2cc(-c3cccc(C(=O)NCCN(C)C)c3)cnc2N)c1` [Y-073, 3-[6-Amino-5-(3-ethoxy-phenyl)-pyridin-3-yl]-N-(2-dimethylamino-ethyl)-benzamide] belongs 1000 to 10000 nM; to `COc1cc(-c2nc(-c3cccc(C(=O)NCCN(C)C)c3)cnc2N)ccn1` [X-024, 3-[5-Amino-6-(2-methoxy-pyridin-4-yl)-pyrazin-2-yl]-N-(2-dimethylamino-ethyl)-benzamide], under 1000 nM. For the molecule `COc1cc(OC)cc(-c2cc(-c3cccc(C(=O)NCCN(C)C)c3)cnc2N)c1` [Y-081, 3-[6-Amino-5-(3,5-dimethoxy-phenyl)-pyridin-3-yl]-N-(2-dimethylamino-ethyl)-benzamide], the IC50 was under 1000 nM. Under `CN(C)CCNC(=O)c1cccc(-c2cnc(N)c(-c3ccc(O)c(F)c3)c2)c1` [Y-042, 3-[6-Amino-5-(3-fluoro-4-hydroxy-phenyl)-pyridin-3-yl]-N-(2-dimethylamino-ethyl)-benzamide] stands under 1000 nM; under `CN(C)CCNC(=O)c1cccc(-c2cnc(N)c(-c3ccc(O)nc3)c2)c1` [Y-007, 3-(2-Amino-6′-hydroxy-[3,3′]bipyridinyl-5-yl)-N-(2-dimethylamino-ethyl)-benzamide], under 1000 nM. To `CN(C)CCNC(=O)c1cccc(-c2cnc(N)c(-c3ccc4cc(O)ccc4c3)n2)c1` [X-023, 3-[5-Amino-6-(6-hydroxy-naphthalen-2-yl)-pyrazin-2-yl]-N-(2-dimethylamino-ethyl)-benzamide] belongs under 1000 nM; to `CN(C)CCNC(=O)c1cccc(-c2cnc(N)c(-c3cccc4ncccc34)c2)c1` [Y-022, 3-(6-Amino-5-quinolin-5-yl-pyridin-3-yl)-N-(2-dimethylamino-ethyl)-benzamide], under 1000 nM. With `COc1cc(-c2cc(-c3cccc(C(=O)N4CCN(C)CC4)c3)cnc2N)ccc1O` [Y-004, {3-[6-Amino-5-(4-hydroxy-3-methoxy-phenyl)-pyridin-3-yl]-phenyl}-(4-methyl-piperazin-1-yl)-methanone], the IC50 was 1000 to 10000 nM. Under `COc1cc(-c2cc(-c3cccc(C(N)=O)c3)cnc2N)ccc1O` [Y-001, 3-[6-Amino-5-(4-hydroxy-3-methoxy-phenyl)-pyridin-3-yl]-benzamide] stands under 1000 nM; under `CN(C)CCNC(=O)c1cccc(-c2cnc(N)c(-c3ccc(OCc4ccccc4)cc3)c2)c1` [Y-051, 3-[6-Amino-5-(4-benzyloxy-phenyl)-pyridin-3-yl]-N-(2-dimethylamino-ethyl)-benzamide], under 1000 nM. To `CN(C)CCNC(=O)c1cccc(-c2cnc(N)c(-c3ccc4nccnc4c3)c2)c1` [Y-091, 3-(6-Amino-5-quinoxalin-6-yl-pyridin-3-yl)-N-(2-dimethylamino-ethyl)-benzamide] belongs under 1000 nM; to `COc1ccc(-c2cc(-c3cccc(C(=O)NCCN(C)C)c3)cnc2N)cc1OC` [Y-035, 3-[6-Amino-5-(3,4-dimethoxy-phenyl)-pyridin-3-yl]-N-(2-dimethylamino-ethyl)-benzamide], under 1000 nM. `CN(C)CCNC(=O)c1cccc(-c2cnc(N)c(-c3cccc(OCc4ccccc4)c3)c2)c1` [Y-038, 3-[6-Amino-5-(3-benzyloxy-phenyl)-pyridin-3-yl]-N-(2-dimethylamino-ethyl)-benzamide]: the IC50 is under 1000 nM. Under `CN(C)CCNC(=O)c1cccc(-c2cnc(N)c(-c3ccc(C(=O)c4ccccc4)cc3)c2)c1` [Y-070, 3-[6-Amino-5-(4-benzoyl-phenyl)-pyridin-3-yl]-N-(2-dimethylamino-ethyl)-benzamide] stands under 1000 nM.
